Patent publication US9801961B2, “2-phenylimidazo[1,2-a]pyrimidines as imaging agents” (Hoffmann-La Roche Inc., priority 2013, dated 2017)

Each compound was assayed on native tau aggregates (assay: TAU radioligand in vitro displacement assay ([3H]T808 autoradiography on human AD brain sections)). Conditions: compound 10 nM, radioligand [3H]T808 10 nM, 50 mM Tris pH 7.4, room temperature, 30 min.
Format: binding
Protocol: TAU Radioligand-In-Vitro Displacement Assay
This in vitro binding assay assesses the affinity of compounds for native tau aggregates. The compounds are co-incubated with the well-established tau specific radioligand [^3H]T808 and the compound's displacement potency of [^3H]T808 binding is determined by in vitro autoradiography using human Alzheimer's disease (AD) brain sections (FIG. 1).
AD human brains are purchased from Banner Sun Health Research Institute (Sun City, Ariz., USA). Pathological diagnosis of AD is made according to standard NIA-Reagan Institute criteria based on neuropathological data. The radioligand [^3H]T808 was synthesized in-house ([^3H]-2-[4-(2-Fluoro-ethyl)-piperidin-1-yl]-benzo[4,5]imidazo[1,2-a]pyrimidine, radiochemical purity 99.0%). As a reference cold T808 is used (2-[4-(2-Fluoro-ethyl)-piperidin-1-yl]-benzo[4,5]imidazo[1,2-a]pyrimidine). For the autoradiography FujiFilm Imaging Plates (BAS-IP TR 2025) are exposed to the sections and read with a FujiFilm IP reader (BAS-5000).
Ten μm thick human AD brain sections are generated with a cryostat (Leica CM3050) at −17° C. chamber temperature and −15° C. object temperature. Sections are transferred to Histobond+microscope slides (Marienfeld Laboratory Glasware). After drying for 3 hours at room temperature the sections are stored at −20° C. The sections are incubated with the radioligand (10 nM) and the respective cold compound (at various concentrations) in 50 mM Tris buffer, pH 7.4 at room temperature for 30 min. After washing 3×10 min at 4° C. in 50 mM Tris buffer, pH 7.4 and 3 quick dips in H2O dist. at 4° C. the sections are dried at 4° C. for 3 h. The sections are placed in a FujiFilm Cassette (BAS 2025), exposed with an Imaging Plate for five days and afterwards scanned with a resolution of […].
The signal intensity (Dens—PSL/mm2) in the region of interest (ROI) of the autoradiogram is quantified with the software MCID analysis (version 7.0, Imaging Research Inc.). The specific binding (SB) of [^3H]T808 binding in absence or in presence of a compound is calculated by subtracting the non-specific binding signal in the white matter, thus yielding SB[3H]T808 only and SBcompund. The % displacement by the various compounds is calculated as following: % displacement=100−(SBcompund/SB[3H]T808 only)*100.
In each experiment cold T808 is used as a positive internal control. Co-incubation of equimolar amounts of hot and cold T808 is expected to reduce specific binding by approximately 50%.

% displacement of [3H]T808 (10 nM) at 10 nM [%] | SMILES
38 | CNc1ccn2cc(-c3ccc(N(C)C)cc3)nc2n1 [Example 90, 2-[4-(Dimethylamino)phenyl]-N-methylimidazo[1,2-a]pyrimidin-7-amine]
23 | FCOc1cccc(-c2cn3ccc(N4CCC4)nc3n2)c1 [Example 118, 7-(Azetidin-1-yl)-2-(3-(fluoromethoxy)phenyl)imidazo[1,2-a]pyrimidine]
23 | CNc1ccn2cc(-c3ccc(CO)cc3)nc2n1 [Example 107, [4-[7-(Methylamino)imidazo[1,2-a]pyrimidin-2-yl]phenyl]methanol acetic acid adduct]
20 | COc1ccc(-c2cn3ccc(N4CC(C)C4)nc3n2)cc1 [Example 89, 2-(4-Methoxyphenyl)-7-(3-methylazetidin-1-yl)imidazo[1,2-a]pyrimidine]
14 | CNc1ccn2cc(-c3cc(OC)cc(OC)c3)nc2n1 [Example 144, 2-(3,5-Dimethoxyphenyl)-N-methylimidazo[1,2-a]pyrimidin-7-amine]
27 | CNc1ccn2cc(-c3cccc(Br)c3)nc2n1 [Example 99, 2-(3-Bromophenyl)-N-methylimidazo[1,2-a]pyrimidin-7-amine]
18 | FCOc1cccc(-c2cn3ccc(NC4CC4)nc3n2)c1 [Example 137, N-Cyclopropyl-2-(3-(fluoromethoxy)phenyl)imidazo[1,2-a]pyrimidin-7-amine]
15 | Cc1ccc(-c2cn3ccc(N4CCC4)nc3n2)cc1 [Example 94, 7-(Azetidin-1-yl)-2-(4-methylphenyl)imidazo[1,2-a]pyrimidine]
34 | CNc1ccn2cc(-c3ccc(SC)cc3)nc2n1 [Example 141, N-Methyl-2-(4-(methylthio)phenyl)imidazo[1,2-a]pyrimidin-7-amine]
28 | CNc1ccn2cc(-c3ccc4c(c3)OCO4)nc2n1 [Example 84, 2-(1,3-Benzodioxol-5-yl)-N-methylimidazo[1,2-a]pyrimidin-7-amine]
38 | Cc1cccc(-c2cn3ccc(N4CCC4)nc3n2)c1 [Example 95, 7-(Azetidin-1-yl)-2-(3-methylphenyl)imidazo[1,2-a]pyrimidine]
20 | FCCOc1ccc(-c2cn3ccc(NC4CC4)nc3n2)cc1 [Example 138, N-Cyclopropyl-2-(4-(2-fluoroethoxy)phenyl)imidazo[1,2-a]pyrimidin-7-amine]
15 | CSc1cccc(-c2cn3ccc(N4CCC4)nc3n2)c1 [Example 126, 7-(Azetidin-1-yl)-2-(3-(methylthio)phenyl)imidazo[1,2-a]pyrimidine]
16 | Cc1ccc(-c2cn3ccc(N(C)CCF)nc3n2)cc1 [Example 86, N-(2-Fluoroethyl)-N-methyl-2-(4-methylphenyl)imidazo[1,2-a]pyrimidin-7-amine]
38 | CNc1ccn2cc(-c3ccc(C)cc3)nc2n1 [Example 82, N-Methyl-2-(4-methylphenyl)imidazo[1,2-a]pyrimidin-7-amine]
18 | CN(C)c1ccn2cc(-c3ccc(CO)cc3)nc2n1 [Example 135, [4-[7-(Dimethylamino)imidazo[1,2-a]pyrimidin-2-yl]phenyl]methanol acetic acid adduct]

Further lines, the compound ahead of its results:

SMILES | % displacement of [3H]T808 (10 nM) at 10 nM [%]
Cc1ccc(-c2cn3ccc(N4CCOCC4)nc3n2)cc1 [Example 42, 4-[2-(4-Methylphenyl)imidazo[1,2-a]pyrimidin-7-yl]morpholine] | 8
Oc1ccc(-c2cn3ccc(N4CCCC4)nc3n2)cc1 [Example 28, 4-(7-Pyrrolidin-1-ylimidazo[1,2-a]pyrimidin-2-yl)phenol] | 22
Cc1cccc(-c2cn3ccc(N4CC(F)C4)nc3n2)c1 [Example 72, 7-(3-Fluoroazetidin-1-yl)-2-(3-methylphenyl)imidazo[1,2-a]pyrimidine] | 18
COc1cccc(-c2cn3ccc(N4CCCC4)nc3n2)c1 [Example 47, 2-(3-Methoxyphenyl)-7-pyrrolidin-1-ylimidazo[1,2-a]pyrimidine] | 20
COc1ccc(-c2cn3ccc(NC4CC4)nc3n2)cc1 [Example 76, N-Cyclopropyl-2-(4-methoxyphenyl)imidazo[1,2-a]pyrimidin-7-amine] | 43
Cc1cccc(-c2cn3ccc(N4CCOCC4)nc3n2)c1 [Example 26, 4-[2-(3-Methylphenyl)imidazo[1,2-a]pyrimidin-7-yl]morpholine] | 13
FC1CCN(c2ccn3cc(-c4cc5ccccc5s4)nc3n2)CC1 [Example 75, 2-(1-Benzothiophen-2-yl)-7-(4-fluoropiperidin-1-yl)imidazo[1,2-a]pyrimidine] | 18
Cc1ccc(-c2cn3ccc(N(C)C)nc3n2)cc1 [Example 39, N,N-Dimethyl-2-(4-methylphenyl)imidazo[1,2-a]pyrimidin-7-amine] | 49
CO[C@H]1CCN(c2ccn3cc(-c4ccccc4)nc3n2)C1 [Example 32, 7-[(3S)-3-Methoxypyrrolidin-1-yl]-2-phenylimidazo[1,2-a]pyrimidine] | 13
Cc1cccc(-c2cn3ccc(N4CCCCC4)nc3n2)c1 [Example 52, 2-(3-Methylphenyl)-7-piperidin-1-ylimidazo[1,2-a]pyrimidine] | 14
COc1ccc(-c2cn3ccc(N4CC[C@H](F)C4)nc3n2)cc1 [Example 34, 7-[(3 S)-3-Fluoropyrrolidin-1-yl]-2-(4-methoxyphenyl)imidazo[1,2-a]pyrimidine] | 15
COc1cccc(-c2cn3ccc(N4CCC(CCF)CC4)nc3n2)c1 [Example 55, 7-[4-(2-Fluoroethyl)piperidin-1-yl]-2-(3-methoxyphenyl)imidazo[1,2-a]pyrimidine] | 10

Same assay, conditions: compound 1 uM, radioligand [3H]T808 10 nM, 50 mM Tris pH 7.4, room temperature, 30 min

% displacement of [3H]T808 (10 nM) at 1 uM [%] | SMILES
75 | FC1CCN(c2ccn3cc(-c4ccc(N5CCOCC5)cc4)nc3n2)CC1 [Example 9, 4-[4-[7-(4-Fluoropiperidin-1-yl)imidazo[1,2-a]pyrimidin-2-yl]phenyl]morpholine]
65 | Fc1ccc(-c2cn3ccc(N4CCC(F)CC4)nc3n2)cc1 [Example 6, 2-(4-Fluorophenyl)-7-(4-fluoropiperidin-1-yl)imidazo[1,2-a]pyrimidine]
72 | FC1CCN(c2ccn3cc(-c4ccc5c(c4)OCCO5)nc3n2)CC1 [Example 8, 2-(2,3-Dihydro-1,4-benzodioxin-6-yl)-7-(4-fluoropiperidin-1-yl)imidazo[1,2-a]pyrimidine]
79 | Cc1cccc(-c2cn3ccc(N4CCC(F)CC4)nc3n2)c1 [Example 10, 7-(4-Fluoropiperidin-1-yl)-2-(3-methylphenyl)imidazo[1,2-a]pyrimidine]

SMILES | % displacement of [3H]T808 (10 nM) at 1 uM [%]
COc1ccc(-c2cn3ccc(N4CCN(CCF)CC4)nc3n2)cc1.Cl [Example 19, 7-[4-(2-Fluoroethyl)piperazin-1-yl]-2-(4-methoxyphenyl)imidazo[1,2-a]pyrimidine hydrochloride] | 74
